Laboratory results: the NIST ThermoML archive (doi:10.1021/je200788z)
± gives the expanded uncertainty stated by the source.

What was measured:
[1] = refractive index (Na D-line) (dimensionless); conditions: 101.33 kPa, Liquid, Standard Abbe refractometry
[2] = 101.33 kPa, Liquid; for speed of sound: Sing-around technique in a fixed-path interferometer; for mass density: Vibrating tube method

Structure (SMILES)	refractive index ([1]; 288.15 K)	refractive index ([1]; 293.15 K)	refractive index ([1]; 303.15 K)	refractive index ([1]; 308.15 K)	refractive index ([1]; 313.15 K)	refractive index ([1]; 318.15 K)	refractive index ([1]; 323.15 K)	refractive index ([1]; 328.15 K)	refractive index ([1]; 333.15 K)	refractive index ([1]; 338.15 K)	refractive index ([1]; 343.15 K)	speed of sound ([2]; 303.15 K)	speed of sound ([2]; 308.15 K)	speed of sound ([2]; 313.15 K)	speed of sound ([2]; 318.15 K)	speed of sound ([2]; 323.15 K)	speed of sound ([2]; 328.15 K)	speed of sound ([2]; 333.15 K)	speed of sound ([2]; 338.15 K)	speed of sound ([2]; 343.15 K)	other results
CC(C)COC(=O)[C@H](C)[NH3+].CCCCCCCCCCCCOS(=O)(=O)[O-] [(S)-1-isobutoxy-1-oxopropan-2-aminium dodecyl sulfate]	1.456 ± 0.0011	1.454 ± 0.0011	1.45 ± 0.0011	1.4479 ± 0.0011	1.4458 ± 0.0011	1.4437 ± 0.0011	1.4418 ± 0.0011	1.4397 ± 0.0011	1.4377 ± 0.0011	1.4354 ± 0.0011	1.4336 ± 0.0011	1381.6 ± 5 m/s	1362.5 ± 5 m/s	1343.9 ± 5 m/s	1325.8 ± 5 m/s	1308.1 ± 5 m/s	1291.2 ± 5 m/s	1275.8 ± 5 m/s	1261 ± 5 m/s	1246.6 ± 5 m/s	refractive index ([1]; 298.15 K): 1.452 ± 0.0011; speed of sound ([2]; 288.15 K): 1447.6 ± 5.1 m/s; mass density ([2]; 288.15 K): 1049.18 ± 6 kg/m3; speed of sound ([2]; 293.15 K): 1423.6 ± 5.1 m/s; mass density ([2]; 293.15 K): 1045.48 ± 5.9 kg/m3; speed of sound ([2]; 298.15 K): 1401.9 ± 5 m/s; mass density ([2]; 298.15 K): 1041.75 ± 5.9 kg/m3; mass density ([2]; 303.15 K): 1038.02 ± 5.8 kg/m3; mass density ([2]; 308.15 K): 1034.13 ± 5.8 kg/m3; mass density ([2]; 313.15 K): 1030.13 ± 5.7 kg/m3; mass density ([2]; 318.15 K): 1026.31 ± 5.7 kg/m3; mass density ([2]; 323.15 K): 1022.6 ± 5.7 kg/m3; mass density ([2]; 328.15 K): 1019.08 ± 5.6 kg/m3; mass density ([2]; 333.15 K): 1015.6 ± 5.6 kg/m3; mass density ([2]; 338.15 K): 1012.14 ± 5.5 kg/m3; mass density ([2]; 343.15 K): 1008.75 ± 5.5 kg/m3
CC(C)COC(=O)[C@@H](N)C(C)C.CCCCCCCCCCCCOS(=O)(=O)O [isobutyl L-valinate dodecyl sulfate]	1.4568 ± 0.0011	1.4555 ± 0.0011	1.4519 ± 0.0011	1.4505 ± 0.0011	1.4488 ± 0.0011	1.4471 ± 0.0011	1.4455 ± 0.0011	1.4438 ± 0.0011	1.4422 ± 0.0011	1.4406 ± 0.0011	1.439 ± 0.0011	1394.6 ± 5 m/s	1379.9 ± 5 m/s	1365.5 ± 5 m/s	1350.9 ± 5 m/s	1335.5 ± 5 m/s	1318.1 ± 5 m/s	1299.9 ± 5 m/s	1275 ± 5 m/s	1249.5 ± 5 m/s	refractive index ([1]; 298.15 K): 1.4538 ± 0.0011; speed of sound ([2]; 288.15 K): 1434.4 ± 5.1 m/s; speed of sound ([2]; 293.15 K): 1421.3 ± 5.1 m/s; speed of sound ([2]; 298.15 K): 1408.6 ± 5 m/s
CC(C)COC(=O)[C@@H]1CCC[NH2+]1.CCCCCCCCCCCCOS(=O)(=O)[O-] [(S)-2-(isobutoxycarbonyl)pyrrolidinium dodecyl sulfate]	1.4648 ± 0.0011	1.4623 ± 0.0011	1.4574 ± 0.0011	1.4549 ± 0.0011	1.4524 ± 0.0011	1.45 ± 0.0011	1.4477 ± 0.0011	1.4452 ± 0.0011	1.4427 ± 0.0011	1.4401 ± 0.0011	1.4378 ± 0.0011	1413 ± 5 m/s	1397.2 ± 5 m/s	1381.5 ± 5 m/s	1366.1 ± 5 m/s	1349.1 ± 5 m/s	1332.9 ± 5 m/s	1316.8 ± 5 m/s	1301.5 ± 5 m/s	1286.2 ± 5 m/s	refractive index ([1]; 298.15 K): 1.4598 ± 0.0011; speed of sound ([2]; 288.15 K): 1460.2 ± 5.1 m/s; mass density ([2]; 288.15 K): 1043.22 ± 5.9 kg/m3; speed of sound ([2]; 293.15 K): 1445.2 ± 5.1 m/s; mass density ([2]; 293.15 K): 1039.54 ± 5.8 kg/m3; speed of sound ([2]; 298.15 K): 1429.2 ± 5.1 m/s; mass density ([2]; 298.15 K): 1035.88 ± 5.8 kg/m3; mass density ([2]; 303.15 K): 1032.22 ± 5.8 kg/m3; mass density ([2]; 308.15 K): 1028.57 ± 5.7 kg/m3; mass density ([2]; 313.15 K): 1024.92 ± 5.7 kg/m3; mass density ([2]; 318.15 K): 1021.27 ± 5.6 kg/m3; mass density ([2]; 323.15 K): 1017.72 ± 5.6 kg/m3; mass density ([2]; 328.15 K): 1014.21 ± 5.5 kg/m3; mass density ([2]; 333.15 K): 1010.85 ± 5.5 kg/m3; mass density ([2]; 338.15 K): 1007.61 ± 5.5 kg/m3; mass density ([2]; 343.15 K): 1004.98 ± 5.5 kg/m3
CC(C)COC(=O)C[NH3+].CCCCCCCCCCCCOS(=O)(=O)[O-] [2-isobutoxy-2-oxoethan-1-aminium dodecyl sulfate]			1.4624 ± 0.0011	1.4592 ± 0.0011	1.456 ± 0.0011	1.4527 ± 0.0011	1.4494 ± 0.0011	1.4462 ± 0.0011	1.443 ± 0.0011	1.4397 ± 0.0011	1.4365 ± 0.0011	1372.1 ± 5 m/s	1355.2 ± 5 m/s	1339 ± 5 m/s	1323 ± 5 m/s	1307.6 ± 5 m/s	1292.5 ± 5 m/s	1277.6 ± 5 m/s	1263 ± 5 m/s	1248.7 ± 5 m/s	mass density ([2]; 303.15 K): 1013.62 ± 5.5 kg/m3; mass density ([2]; 308.15 K): 1009.88 ± 5.5 kg/m3; mass density ([2]; 313.15 K): 1006.14 ± 5.5 kg/m3; mass density ([2]; 318.15 K): 1002.38 ± 5.4 kg/m3; mass density ([2]; 323.15 K): 998.71 ± 5.4 kg/m3; mass density ([2]; 328.15 K): 995.15 ± 5.3 kg/m3; mass density ([2]; 333.15 K): 991.89 ± 5.3 kg/m3; mass density ([2]; 338.15 K): 988.22 ± 5.3 kg/m3; mass density ([2]; 343.15 K): 984.53 ± 5.2 kg/m3
